Laboratory results reported in PubChem BioAssay (NCI).
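Five concentrations, 48 hours, 96-well plates. TGI: total growth inhibition.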

Assays:
Assay in all cases: inhibition of tumour cell growth, NCI panel, 48 h
OVCAR-8 ovarian = test system: OVCAR-8 ovarian
XF 498 CNS = test system: XF 498 CNS
A549 NSCLC = test system: A549 NSCLC
HOP-62 NSCLC = test system: HOP-62 NSCLC
IGROV1 ovarian = test system: IGROV1 ovarian
M14 melanoma = test system: M14 melanoma
NCI-H460 lung = test system: NCI-H460 lung
HCC-2998 colon = test system: HCC-2998 colon
KM20L2 colon = test system: KM20L2 colon
HT29 colon = test system: HT29 colon
LOX IMVI melanoma = test system: LOX IMVI melanoma
DMS 114 small cell lung = test system: DMS 114 small cell lung
DMS 273 small cell lung = test system: DMS 273 small cell lung
NCI-H522 lung = test system: NCI-H522 lung
EKVX NSCLC = test system: EKVX NSCLC
COLO 205 colon = test system: COLO 205 colon
SF-268 CNS = test system: SF-268 CNS
SF-295 CNS = test system: SF-295 CNS
UACC-257 melanoma = test system: UACC-257 melanoma
SK-OV-3 ovarian = test system: SK-OV-3 ovarian
SF-539 CNS = test system: SF-539 CNS
SW-620 colon = test system: SW-620 colon
HCT-15 colon = test system: HCT-15 colon
SK-MEL-28 melanoma = test system: SK-MEL-28 melanoma
RXF 393 renal = test system: RXF 393 renal
M19-MEL melanoma = test system: M19-MEL melanoma
MOLT-4 leukemia = test system: MOLT-4 leukemia
HCT-116 colon = test system: HCT-116 colon
U251 CNS = test system: U251 CNS
SN12C renal = test system: SN12C renal
K-562 leukemia = test system: K-562 leukemia
CCRF-CEM leukemia = test system: CCRF-CEM leukemia
786-0 renal = test system: 786-0 renal
RPMI-8226 leukemia = test system: RPMI-8226 leukemia
SK-MEL-5 melanoma = test system: SK-MEL-5 melanoma
KM12 colon = test system: KM12 colon
HL-60(TB) leukemia = test system: HL-60(TB) leukemia
ACHN renal = test system: ACHN renal
SR leukemia = test system: SR leukemia
NCI-H23 lung = test system: NCI-H23 lung
LXFL 529 NSCLC = test system: LXFL 529 NSCLC
NCI-H226 lung = test system: NCI-H226 lung
MALME-3M melanoma = test system: MALME-3M melanoma
UO-31 renal = test system: UO-31 renal
SNB-19 CNS = test system: SNB-19 CNS
OVCAR-3 ovarian = test system: OVCAR-3 ovarian
MDA-MB-435 = test system: MDA-MB-435
MDA-MB-231 breast = test system: MDA-MB-231 breast
HS 578T breast = test system: HS 578T breast
NCI/ADR-RES ovarian = test system: NCI/ADR-RES ovarian
DU-145 prostate = test system: DU-145 prostate
HOP-92 NSCLC = test system: HOP-92 NSCLC
TK-10 renal = test system: TK-10 renal
SK-MEL-2 melanoma = test system: SK-MEL-2 melanoma
T-47D breast = test system: T-47D breast
PC-3 prostate = test system: PC-3 prostate
UACC-62 melanoma = test system: UACC-62 melanoma
CAKI-1 renal = test system: CAKI-1 renal
OVCAR-5 ovarian = test system: OVCAR-5 ovarian
OVCAR-4 ovarian = test system: OVCAR-4 ovarian
BT-549 breast = test system: BT-549 breast
A498 renal = test system: A498 renal
MCF7 breast = test system: MCF7 breast
SNB-75 CNS = test system: SNB-75 CNS
MDA-N = test system: MDA-N

O=C1NCCCC12CCCNC2=O
TGI (OVCAR-8 ovarian): > 100 µM
TGI (XF 498 CNS): > 100 µM
TGI (A549 NSCLC): > 100 µM
TGI (HOP-62 NSCLC): > 100 µM
TGI (IGROV1 ovarian): > 100 µM
TGI (M14 melanoma): > 100 µM
TGI (NCI-H460 lung): > 100 µM
TGI (HCC-2998 colon): > 100 µM
TGI (KM20L2 colon): > 100 µM
TGI (HT29 colon): > 100 µM
TGI (LOX IMVI melanoma): > 100 µM
TGI (DMS 114 small cell lung): > 100 µM
TGI (DMS 273 small cell lung): > 100 µM
TGI (NCI-H522 lung): > 100 µM
TGI (EKVX NSCLC): > 100 µM
TGI (COLO 205 colon): > 100 µM
TGI (SF-268 CNS): > 100 µM
TGI (SF-295 CNS): > 100 µM
TGI (UACC-257 melanoma): > 100 µM
TGI (SK-OV-3 ovarian): > 100 µM
TGI (SF-539 CNS): > 100 µM
TGI (SW-620 colon): > 100 µM
TGI (HCT-15 colon): > 100 µM
TGI (SK-MEL-28 melanoma): > 100 µM
TGI (RXF 393 renal): > 100 µM
TGI (M19-MEL melanoma): > 100 µM
TGI (MOLT-4 leukemia): > 100 µM
TGI (HCT-116 colon): > 100 µM
TGI (U251 CNS): > 100 µM
TGI (SN12C renal): > 100 µM
TGI (K-562 leukemia): > 100 µM
TGI (CCRF-CEM leukemia): > 100 µM
TGI (786-0 renal): > 100 µM
TGI (RPMI-8226 leukemia): > 100 µM
TGI (SK-MEL-5 melanoma): > 100 µM
TGI (KM12 colon): > 100 µM
TGI (HL-60(TB) leukemia): > 100 µM
TGI (ACHN renal): > 100 µM
TGI (SR leukemia): > 100 µM
TGI (NCI-H23 lung): > 100 µM
TGI (LXFL 529 NSCLC): > 100 µM
TGI (NCI-H226 lung): > 100 µM
TGI (MALME-3M melanoma): > 100 µM
TGI (UO-31 renal): > 100 µM
TGI (SNB-19 CNS): > 100 µM
TGI (OVCAR-3 ovarian): > 100 µM

Nc1ccc2nc3ccc(N)cc3[n+](-c3ccccc3)c2c1
TGI (MDA-MB-435): > 100 µM
TGI (MDA-MB-231 breast): > 100 µM
TGI (HS 578T breast): > 100 µM
TGI (A549 NSCLC): > 100 µM
TGI (HOP-62 NSCLC): > 100 µM
TGI (IGROV1 ovarian): > 100 µM
TGI (M14 melanoma): > 100 µM
TGI (NCI-H460 lung): > 100 µM
TGI (HCC-2998 colon): > 100 µM
TGI (NCI/ADR-RES ovarian): > 100 µM
TGI (DU-145 prostate): > 100 µM
TGI (HT29 colon): > 100 µM
TGI (LOX IMVI melanoma): 75.9 µM
TGI (HOP-92 NSCLC): > 100 µM
TGI (TK-10 renal): > 100 µM
TGI (SK-MEL-2 melanoma): > 100 µM
TGI (NCI-H522 lung): > 100 µM
TGI (T-47D breast): > 100 µM
TGI (PC-3 prostate): > 100 µM
TGI (EKVX NSCLC): > 100 µM
TGI (COLO 205 colon): 26.9 µM
TGI (SF-268 CNS): > 100 µM
TGI (UACC-62 melanoma): > 100 µM
TGI (SF-295 CNS): > 100 µM
TGI (UACC-257 melanoma): 68 µM
TGI (SK-OV-3 ovarian): > 100 µM
TGI (SF-539 CNS): > 100 µM
TGI (SW-620 colon): > 100 µM
TGI (HCT-15 colon): > 100 µM
TGI (SK-MEL-28 melanoma): > 100 µM
TGI (RXF 393 renal): > 100 µM
TGI (CAKI-1 renal): > 100 µM
TGI (OVCAR-5 ovarian): 80.9 µM
TGI (HCT-116 colon): 97.3 µM
TGI (OVCAR-4 ovarian): > 100 µM
TGI (U251 CNS): > 100 µM
TGI (SN12C renal): > 100 µM
TGI (BT-549 breast): > 100 µM
TGI (K-562 leukemia): > 100 µM
TGI (CCRF-CEM leukemia): > 100 µM
TGI (786-0 renal): > 100 µM
TGI (RPMI-8226 leukemia): > 100 µM
TGI (SK-MEL-5 melanoma): 96.4 µM
TGI (KM12 colon): > 100 µM
TGI (HL-60(TB) leukemia): > 100 µM
TGI (A498 renal): > 100 µM
TGI (ACHN renal): > 100 µM
TGI (MCF7 breast): > 100 µM
TGI (SR leukemia): > 100 µM
TGI (NCI-H23 lung): > 100 µM
TGI (SNB-75 CNS): > 100 µM
TGI (MALME-3M melanoma): 74.7 µM
TGI (UO-31 renal): > 100 µM
TGI (MDA-N): > 100 µM
TGI (SNB-19 CNS): > 100 µM
TGI (OVCAR-3 ovarian): > 100 µM
